# Source: patent US8673617B2, “Culture medium for Haemophilus influenzae type B” (Sanofi Pasteur SA, priority 2007, dated 2014)
# Experiments:
# [1] = system: Haemophilus influenzae serotype b; assay: PRP production in liquid wheat peptone-based culture medium as a function of heme source (sandwich ELISA on supernatant); assay type: cell-based; conditions: for Mean PRP / PRP in mg/l Assay 1 / PRP in mg/l Assay 2: wheat medium, 16 h
# Procedure: (§1) The production of PRP obtained after 16 hours of bacterial culture in liquid plant peptones-based culture media in which the heme source was either hemin or protoporphyrin IX of animal origin (porcine protoporphyrin) in disodium salt form, or protoporphyrin IX of purely synthetic origin in disodium salt form was compared. The hemin and protoporphyrin IX concentration ranges in the culture media varied from about 0.010 g/l to about 2 g/l so as to obtain PRP titration curves as a function of the heme source tested and as a function of the plant peptone tested. An enzymatic hydrolysate of garden pea peptone provided by Kerry (Hy pea 7404) and a wheat peptone provided by Organotechnie (19559) were tested at a concentration in the culture medium equivalent to 0.87 g/l of protein nitrogen. By reference to the current methods for the production of PRP, PRP production was also measured in a medium that contains a peptone of animal origin, such as casein hydrolysate (HAC) provided by Solabia at a concentration in the medium equivalent to 0.87 g/l with increased concentrations of hemin (see table III).
# (§2) 1.1) Preparation of the Media • 1.1.1. Stock solution of β-NAD (Fluka) at 1 g/l in water which was ultrafiltered and then sterilized by filtration through 0.22 μm. • 1.1.2. Stock solution of hemin (Sigma) at 0.25 g/l in water was ultrafiltered, comprising 5 ml of 25% aqueous ammonia (Cooper) to aid dissolution. The stock solution was sterilized by filtration through 0.22 μm. • 1.1.3. Stock solution of porcine protoporphyrin IX (Sigma) at 0.25 g/l in ultrafiltered water comprising 5 ml of 25% aqueous ammonia (Cooper) in order to facilitate the dissolution. The stock solution was sterilized by filtration through 0.22 μm. • 1.1.4. Stock solution of synthetic protoporphyrin IX at 0.25 g/l in ultrafiltered water comprising 5 ml of 25% aqueous ammonia (Cooper) in order to facilitate the dissolution. The stock solution was also heated to 80° C. in a water bath with stirring in order to complete the dissolution before being sterilized by filtration through 0.22 μm. The protoporphyrin IX, in disodium salt form, was synthesized according to the method described in the U.S. provisional patent application Ser. No. 12/057,574, filed Mar. 28, 2008 and application Ser. No. 60/943,735 and filed on Jun. 13, 2007 using the steps which are described in scheme 2. • The stock solutions of hemin and protoporphyrin IX were checked for their respective contents of active compounds after sterilizing filtration. The protoporphyrin IX and hemin contents were determined by Reversed Phase High Performance Liquid Chromatography (RP-HPLC). The chromatographic chain comprises a twin head pump module allowing the formation of a binary gradient, a programmable automatic injector, a diode array UV detector and a chromatographic column of the type Synergi 4 μm, Polar RP-80A (150×4.6) mm, ref 00F-4336-E0, Phenomenex. • The stock solution of hemin (Sigma) to be checked after filtration was diluted ⅓ in distilled water. The stock solutions of porcine protoporphyrin IX (Sigma) and of synthetic protoporphyrin IX to be checked after filtration were diluted ¼ in distilled water. In parallel, a calibration series was prepared in ammoniated water ranging from 0.025 g/l to 0.125 g/l of protoporphyrin IX from porcine protoporphyrin IX from Sigma (ref: 25838-5) and a calibration series ranging from 0.050 g/l to 0.150 g/l of hemin from hemin from Sigma (ref: H5533-256). The samples to be checked and the various solutions of the calibration series were injected in a volume of 20 μl (for the hemin solutions and samples) and of 5 μl (for the protoporphyrin IX solutions and samples). The initial mobile phase consisting of a volume for volume mixture of acetonitrile and 10 mM KH2PO4 pH 2.5 is set at a flow rate of 1 ml/min. A discontinuous gradient was then produced from this mobile phase in order to separate the molecules of interest which are detected at a wavelength of 400 nm. […]
# [2] = system: Haemophilus influenzae serotype b; assay: PRP production in liquid casein hydrolysate (HAC) medium with increasing hemin (sandwich ELISA on supernatant); assay type: cell-based; conditions: for Mean PRP / PRP in mg/l Assay 1 / PRP in mg/l Assay 2: HAC medium, 16 h
# Procedure: as §1, §2
structure (smiles),measurement,setting,value
"C=CC1=C(C)c2cc3[n-]c(cc4nc(cc5[n-]c(cc1n2)c(C)c5CCC(=O)O)C(CCC(=O)O)=C4C)c(C)c3C=C.[Cl-].[Fe+3] [Hemin, hemin, reference compound]",Mean PRP,[1]; hemin 11.8 μg/l,5.3 mg/L
same,PRP in mg/l Assay 1,[1]; hemin 11.8 μg/l,4.98 mg/L
same,PRP in mg/l Assay 2,[1]; hemin 11.8 μg/l,5.61 mg/L
same,Mean PRP,[1]; hemin 59 μg/l,13.35 mg/L
same,PRP in mg/l Assay 1,[1]; hemin 59 μg/l,13 mg/L
same,PRP in mg/l Assay 2,[1]; hemin 59 μg/l,13.7 mg/L
same,Mean PRP,[1]; hemin 118 μg/l,17.60 mg/L
same,PRP in mg/l Assay 1,[1]; hemin 118 μg/l,17.7 mg/L
same,PRP in mg/l Assay 2,[1]; hemin 118 μg/l,17.5 mg/L
same,Mean PRP,[1]; hemin 295 μg/l,32.75 mg/L
same,PRP in mg/l Assay 1,[1]; hemin 295 μg/l,35.3 mg/L
same,PRP in mg/l Assay 2,[1]; hemin 295 μg/l,30.2 mg/L
same,Mean PRP,[1]; hemin 590 μg/l,72.4 mg/L
same,PRP in mg/l Assay 1,[1]; hemin 590 μg/l,71.4 mg/L
same,PRP in mg/l Assay 2,[1]; hemin 590 μg/l,73.4 mg/L
same,Mean PRP,[1]; hemin 1180 μg/l,291.5 mg/L
same,PRP in mg/l Assay 1,[1]; hemin 1180 μg/l,327 mg/L
same,PRP in mg/l Assay 2,[1]; hemin 1180 μg/l,256 mg/L
same,Mean PRP,[1]; hemin 1770 μg/l,466.5 mg/L
same,PRP in mg/l Assay 1,[1]; hemin 1770 μg/l,487 mg/L
same,PRP in mg/l Assay 2,[1]; hemin 1770 μg/l,446 mg/L
same,Mean PRP,[1]; hemin 2360 μg/l,495.5 mg/L
same,PRP in mg/l Assay 1,[1]; hemin 2360 μg/l,487 mg/L
same,PRP in mg/l Assay 2,[1]; hemin 2360 μg/l,504 mg/L
same,heme source concentration required for optimum / equivalent PRP production,[1]; wheat peptone medium (FIG. 2),about 1500 μg/l
same,Mean PRP,[2]; hemin 11.8 μg/l,16.8 mg/L
same,PRP in mg/l Assay 1,[2]; hemin 11.8 μg/l,18.9 mg/L
same,PRP in mg/l Assay 2,[2]; hemin 11.8 μg/l,14.7 mg/L
same,Mean PRP,[2]; hemin 59 μg/l,80.2 mg/L
same,PRP in mg/l Assay 1,[2]; hemin 59 μg/l,82.7 mg/L
same,PRP in mg/l Assay 2,[2]; hemin 59 μg/l,77.7 mg/L
same,Mean PRP,[2]; hemin 118 μg/l,199.5 mg/L
same,PRP in mg/l Assay 1,[2]; hemin 118 μg/l,183 mg/L
same,PRP in mg/l Assay 2,[2]; hemin 118 μg/l,216 mg/L
same,Mean PRP,[2]; hemin 295 μg/l,314.5 mg/L
same,PRP in mg/l Assay 1,[2]; hemin 295 μg/l,325 mg/L
same,PRP in mg/l Assay 2,[2]; hemin 295 μg/l,304 mg/L
same,Mean PRP,[2]; hemin 590 μg/l,410.5 mg/L
same,PRP in mg/l Assay 1,[2]; hemin 590 μg/l,381 mg/L
same,PRP in mg/l Assay 2,[2]; hemin 590 μg/l,440 mg/L
same,Mean PRP,[2]; hemin 1180 μg/l,414.5 mg/L
same,PRP in mg/l Assay 1,[2]; hemin 1180 μg/l,424 mg/L
same,PRP in mg/l Assay 2,[2]; hemin 1180 μg/l,405 mg/L
same,Mean PRP,[2]; hemin 1770 μg/l,461.5 mg/L
same,PRP in mg/l Assay 1,[2]; hemin 1770 μg/l,404 mg/L
same,PRP in mg/l Assay 2,[2]; hemin 1770 μg/l,519 mg/L
same,Mean PRP,[2]; hemin 2360 μg/l,464.5 mg/L
same,PRP in mg/l Assay 1,[2]; hemin 2360 μg/l,439 mg/L
same,PRP in mg/l Assay 2,[2]; hemin 2360 μg/l,490 mg/L
same,hemin concentration to obtain about 400 mg/l of PRP,[2]; casein hydrolysate and hemin-based medium,at least 500 μg/l
